The source of these data is US12478066B2, “Pesticidal mixtures” (BASF SE, priority 2019, dated 2025).

Holding throughout (assay type): cell-based
For assay [1], the system named is Qoi resistant isolate of Pyrenophora teres. Put plainly: Microtiter test: activity against net blotch Pyrenophora teres on barley (PYRNTE), Qoi resistant isolate. The conditions noted are these: 0.063 ppm, 7 days after inoculation. The procedure:
(§1) The active compounds were formulated separately as a stock solution having a concentration of 10000 ppm in dimethyl sulfoxide.
The stock solutions were mixed according to the ratio, pipetted onto a micro titer plate (MTP) and diluted with water to the stated concentrations. A spore suspension of a Qoi resistant isolate of Pyrenophora teres in an aqueous biomalt or yeast-bactopeptone-glycerine or DOB solution was then added. The plates were placed in a water vapor-saturated chamber at a temperature of 18° C. Using an absorption photometer, the MTPs were measured at 405 nm 7 days after the inoculation.
(§2) The measured parameters were compared to the growth of the active compound-free control variant (100%) and the fungus-free blank value to determine the relative growth in % of the pathogens in the respective active compounds.
(§3) These percentages were converted into efficacies.
(§4) An efficacy of 0 means that the growth level of the pathogens corresponds to that of the untreated control; an efficacy of 100 means that the pathogens were not growing.
(§5) The expected efficacies of active compound mixtures were determined using Colby's formula [R. S. Colby, “Calculating synergistic and antagonistic responses of herbicide combinations”, Weeds 15, 20-22 (1967)] and compared with the observed efficacies.

The subject of another assay is Microdochium nivale. The experiment in a line: Microtest: activity against Microdochium nivale (MONGNI). The following applies: 7 days after inoculation. The procedure: as §1
The stock solutions were mixed according to the ratio, pipetted onto a micro titer plate (MTP) and diluted with water to the stated concentrations. A spore suspension of Microdochium nivale in an aqueous biomalt or yeast-bactopeptone-glycerine or DOB solution was then added. The plates were placed in a water vapor-saturated chamber at a temperature of 18° C. Using an absorption photometer, the MTPs were measured at 405 nm 7 days after the inoculation.
as §2, §3, §4, §5

In another assay the test system is Rhynchosporium secalis. Put plainly: Microtest: activity against Rhynchosporium secalis (RHYNSE). The following applies: 7 days after inoculation. The method, then:
as §1
The stock solutions were mixed according to the ratio, pipetted onto a micro titer plate (MTP) and diluted with water to the stated concentrations. A spore suspension of Rhynchosporium secalis in an aqueous biomalt or yeast-bactopeptone-glycerine or DOB solution was then added. The plates were placed in a water vapor-saturated chamber at a temperature of 18° C. Using an absorption photometer, the MTPs were measured at 405 nm 7 days after the inoculation.
as §2, §3, §4, §5

The subject of another assay is Leptosphaeria nodorum. Put plainly: Microtest: activity against wheat leaf spots caused by Leptosphaeria nodorum (LEPTNO). The following applies: 7 days after inoculation. The procedure:
as §1
The stock solutions were mixed according to the ratio, pipetted onto a micro titer plate (MTP) and diluted with water to the stated concentrations. A spore suspension of Leptosphaeria nodorum in an aqueous biomalt or yeast-bactopeptone-glycerine or DOB solution was then added. The plates were placed in a water vapor-saturated chamber at a temperature of 18° C. Using an absorption photometer, the MTPs were measured at 405 nm 7 days after the inoculation.
as §2, §3, §4, §5

For assay [2], the system named is Qoi resistant isolate of Septoria tritici. Put plainly: Microtest: activity against leaf blotch on wheat caused by Septoria tritici (SEPTTR), Qoi resistant isolate. The following applies: 7 days after inoculation. The method, then:
as §1
The stock solutions were mixed according to the ratio, pipetted onto a micro titer plate (MTP) and diluted with water to the stated concentrations. A spore suspension of a Qoi resistant isolate of Septoria tritici in an aqueous biomalt or yeast-bactopeptone-glycerine or DOB solution was then added. The plates were placed in a water vapor-saturated chamber at a temperature of 18° C. Using an absorption photometer, the MTPs were measured at 405 nm 7 days after the inoculation.
as §2, §3, §4, §5

Regarding `COc1ccnc(C(=O)N[C@@H](C)C(=O)O[C@@H](C)C(c2ccc(F)cc2)c2ccc(F)cc2)c1OC(C)=O` [Florylpicoxamid, [(1S)-2,2-bis(4-fluorophenyl)-1-methyl-ethyl] (2S)-2-[(3-acetoxy-4-methoxy-pyridine-2-carbonyl)amino]propanoate], the Observed efficacy in assay [1] is 9; in the assay with Microdochium nivale (0.004 ppm), 3; with Microdochium nivale (0.016 ppm), 18; with Microdochium nivale (0.063 ppm) it was 44; in the assay on Rhynchosporium secalis (0.063 ppm), 55; with Leptosphaeria nodorum (0.004 ppm) it was 13. For the same molecule, the Observed efficacy in assay [2] (0.016 ppm) is given as 0; in assay [2] (0.063 ppm), 12.
Regarding `Cc1cccc(-n2nnn(C)c2=O)c1COc1ccn(-c2ccc(Cl)cc2)n1` [Metyltetraprol, 1-[2-[[1-(4-chlorophenyl)pyrazol-3-yl]oxymethyl]-3-methyl-phenyl]-4-methyl-tetrazol-5-one], the Observed efficacy stood at 11 in assay [1]; 1 in the assay on Microdochium nivale (0.004 ppm); 32 in the assay with Microdochium nivale (0.016 ppm); 14 with Rhynchosporium secalis (0.016 ppm); 49 with Leptosphaeria nodorum (0.016 ppm); 1 in assay [2] (0.004 ppm). Besides, the results for the Observed efficacy in assay [2] (0.016 ppm) and in assay [2] (0.063 ppm) were 0 and 1, respectively.
